From article PMC4685510, “A Cell Biologist’s Field Guide to Aurora Kinase Inhibitors” (Frontiers in Oncology, 2015)

What was measured:
Test in all cases: biochemical
Type in all cases: biochemical
[1] = target: T1, 363 human kinases (including Aurora A/B/C) (Homo sapiens, UniProt Q04771); conditions: ALK2/ACVR1, [ATP] 20 µM; for remaining activity at 0.1 µM: 100 nM; for remaining activity at 0.1 µM / remaining activity at 0.5 µM: read-out: % Enzyme Activity (relative to DMSO controls)
T1 sequence (Q04771 21-509): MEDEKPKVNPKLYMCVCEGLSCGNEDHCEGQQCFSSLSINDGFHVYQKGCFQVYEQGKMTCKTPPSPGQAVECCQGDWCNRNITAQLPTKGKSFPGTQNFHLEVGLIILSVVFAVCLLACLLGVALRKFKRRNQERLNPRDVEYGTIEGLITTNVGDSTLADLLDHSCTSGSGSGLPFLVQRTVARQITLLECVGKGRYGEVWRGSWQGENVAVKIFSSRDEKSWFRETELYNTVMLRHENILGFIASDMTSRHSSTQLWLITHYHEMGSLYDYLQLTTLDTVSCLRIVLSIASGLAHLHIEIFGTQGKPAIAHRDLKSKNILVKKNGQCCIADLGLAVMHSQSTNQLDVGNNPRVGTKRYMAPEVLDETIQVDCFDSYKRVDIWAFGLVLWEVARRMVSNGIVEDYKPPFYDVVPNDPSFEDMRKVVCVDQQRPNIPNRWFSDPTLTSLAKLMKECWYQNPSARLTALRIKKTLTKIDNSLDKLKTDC
Source text: (§1) However, the Aurora A/B selectivity ratios derived from our in vitro and in vivo data can be compared to prioritize inhibitors.

[2] = target: T2, 363 human kinases (including Aurora A/B/C) (Homo sapiens, UniProt Q16832); conditions: DDR2, [ATP] 5 µM; for remaining activity at 0.1 µM: 100 nM; for remaining activity at 0.1 µM / remaining activity at 0.5 µM: read-out: % Enzyme Activity (relative to DMSO controls)
T2 sequence (Q16832 22-855): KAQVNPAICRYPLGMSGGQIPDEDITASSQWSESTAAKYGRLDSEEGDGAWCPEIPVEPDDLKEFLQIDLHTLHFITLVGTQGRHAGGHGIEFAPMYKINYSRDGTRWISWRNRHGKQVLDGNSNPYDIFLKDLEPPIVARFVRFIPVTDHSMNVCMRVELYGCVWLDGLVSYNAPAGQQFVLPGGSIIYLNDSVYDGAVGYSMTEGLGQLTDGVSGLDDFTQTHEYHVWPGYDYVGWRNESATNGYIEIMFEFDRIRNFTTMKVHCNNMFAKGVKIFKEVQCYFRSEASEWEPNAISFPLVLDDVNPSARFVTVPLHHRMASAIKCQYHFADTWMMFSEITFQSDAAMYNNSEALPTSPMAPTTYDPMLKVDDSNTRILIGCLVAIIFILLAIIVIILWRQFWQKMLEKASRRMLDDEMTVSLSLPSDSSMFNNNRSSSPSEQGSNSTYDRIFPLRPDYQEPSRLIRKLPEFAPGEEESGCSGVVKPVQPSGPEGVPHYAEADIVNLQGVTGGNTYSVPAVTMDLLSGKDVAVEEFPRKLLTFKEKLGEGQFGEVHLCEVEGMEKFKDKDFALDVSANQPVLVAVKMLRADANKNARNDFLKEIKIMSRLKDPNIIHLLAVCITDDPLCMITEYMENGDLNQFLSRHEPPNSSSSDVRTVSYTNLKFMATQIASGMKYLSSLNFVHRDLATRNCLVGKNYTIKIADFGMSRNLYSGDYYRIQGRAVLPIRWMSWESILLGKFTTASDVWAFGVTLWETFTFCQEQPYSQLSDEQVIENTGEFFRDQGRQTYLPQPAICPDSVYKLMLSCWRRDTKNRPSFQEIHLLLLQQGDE
Source text: as §1

[3] = target: 363 human kinases (including Aurora A/B/C) (Homo sapiens, UniProt O96017); conditions: CHK2, [ATP] 20 µM
363 human kinases (including Aurora A/B/C) (Homo sapiens, UniProt O96017), sequence (O96017 whole entry): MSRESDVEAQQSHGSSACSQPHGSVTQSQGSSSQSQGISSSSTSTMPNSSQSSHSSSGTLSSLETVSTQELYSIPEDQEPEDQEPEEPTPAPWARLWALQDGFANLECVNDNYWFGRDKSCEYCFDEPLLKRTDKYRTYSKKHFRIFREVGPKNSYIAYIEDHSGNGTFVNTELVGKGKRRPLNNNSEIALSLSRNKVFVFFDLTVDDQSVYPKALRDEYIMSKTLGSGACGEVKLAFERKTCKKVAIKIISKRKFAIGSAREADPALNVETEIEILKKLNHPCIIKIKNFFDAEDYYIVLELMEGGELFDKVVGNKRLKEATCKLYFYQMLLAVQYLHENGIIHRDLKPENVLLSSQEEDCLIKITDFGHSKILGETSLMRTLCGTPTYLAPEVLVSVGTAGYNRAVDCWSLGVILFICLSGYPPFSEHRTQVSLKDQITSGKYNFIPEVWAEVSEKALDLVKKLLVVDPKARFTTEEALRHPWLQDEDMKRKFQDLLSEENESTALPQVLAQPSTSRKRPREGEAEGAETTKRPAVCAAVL
Source text: as §1

[4] = target: 363 human kinases (including Aurora A/B/C) (Homo sapiens, UniProt P29376); conditions: TYK1/LTK; for remaining activity at 0.1 µM: 100 nM; for remaining activity at 0.1 µM / remaining activity at 0.5 µM: read-out: % Enzyme Activity (relative to DMSO controls)
363 human kinases (including Aurora A/B/C) (Homo sapiens, UniProt P29376), sequence (P29376 17-864): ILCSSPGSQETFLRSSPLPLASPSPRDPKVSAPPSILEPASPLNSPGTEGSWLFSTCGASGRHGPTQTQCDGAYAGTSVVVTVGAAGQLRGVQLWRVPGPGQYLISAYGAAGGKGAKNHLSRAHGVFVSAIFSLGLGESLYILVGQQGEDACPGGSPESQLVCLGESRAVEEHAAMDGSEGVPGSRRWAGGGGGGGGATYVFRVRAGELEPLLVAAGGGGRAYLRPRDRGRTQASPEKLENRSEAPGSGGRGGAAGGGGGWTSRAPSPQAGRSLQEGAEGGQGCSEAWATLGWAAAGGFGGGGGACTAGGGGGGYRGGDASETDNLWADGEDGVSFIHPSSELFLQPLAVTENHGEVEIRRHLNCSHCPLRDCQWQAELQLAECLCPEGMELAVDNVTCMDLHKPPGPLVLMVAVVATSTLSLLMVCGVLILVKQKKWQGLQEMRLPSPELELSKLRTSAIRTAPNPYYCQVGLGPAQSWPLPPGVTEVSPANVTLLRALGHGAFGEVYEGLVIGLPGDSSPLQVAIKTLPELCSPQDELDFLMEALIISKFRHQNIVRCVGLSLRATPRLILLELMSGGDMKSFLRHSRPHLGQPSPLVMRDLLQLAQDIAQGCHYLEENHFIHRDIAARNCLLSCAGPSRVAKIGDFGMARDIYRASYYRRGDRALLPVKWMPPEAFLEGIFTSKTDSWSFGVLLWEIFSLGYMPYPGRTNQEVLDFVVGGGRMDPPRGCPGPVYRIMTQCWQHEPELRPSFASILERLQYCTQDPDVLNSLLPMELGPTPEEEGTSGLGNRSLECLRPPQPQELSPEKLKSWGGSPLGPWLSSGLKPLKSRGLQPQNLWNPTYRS
Source text: as §1

[5] = target: T3, 363 human kinases (including Aurora A/B/C) (Homo sapiens, UniProt Q8IVT5); conditions: KSR1; for remaining activity at 0.1 µM: 100 nM; for remaining activity at 0.1 µM / remaining activity at 0.5 µM: read-out: % Enzyme Activity (relative to DMSO controls)
T3 sequence (Q8IVT5 1-923): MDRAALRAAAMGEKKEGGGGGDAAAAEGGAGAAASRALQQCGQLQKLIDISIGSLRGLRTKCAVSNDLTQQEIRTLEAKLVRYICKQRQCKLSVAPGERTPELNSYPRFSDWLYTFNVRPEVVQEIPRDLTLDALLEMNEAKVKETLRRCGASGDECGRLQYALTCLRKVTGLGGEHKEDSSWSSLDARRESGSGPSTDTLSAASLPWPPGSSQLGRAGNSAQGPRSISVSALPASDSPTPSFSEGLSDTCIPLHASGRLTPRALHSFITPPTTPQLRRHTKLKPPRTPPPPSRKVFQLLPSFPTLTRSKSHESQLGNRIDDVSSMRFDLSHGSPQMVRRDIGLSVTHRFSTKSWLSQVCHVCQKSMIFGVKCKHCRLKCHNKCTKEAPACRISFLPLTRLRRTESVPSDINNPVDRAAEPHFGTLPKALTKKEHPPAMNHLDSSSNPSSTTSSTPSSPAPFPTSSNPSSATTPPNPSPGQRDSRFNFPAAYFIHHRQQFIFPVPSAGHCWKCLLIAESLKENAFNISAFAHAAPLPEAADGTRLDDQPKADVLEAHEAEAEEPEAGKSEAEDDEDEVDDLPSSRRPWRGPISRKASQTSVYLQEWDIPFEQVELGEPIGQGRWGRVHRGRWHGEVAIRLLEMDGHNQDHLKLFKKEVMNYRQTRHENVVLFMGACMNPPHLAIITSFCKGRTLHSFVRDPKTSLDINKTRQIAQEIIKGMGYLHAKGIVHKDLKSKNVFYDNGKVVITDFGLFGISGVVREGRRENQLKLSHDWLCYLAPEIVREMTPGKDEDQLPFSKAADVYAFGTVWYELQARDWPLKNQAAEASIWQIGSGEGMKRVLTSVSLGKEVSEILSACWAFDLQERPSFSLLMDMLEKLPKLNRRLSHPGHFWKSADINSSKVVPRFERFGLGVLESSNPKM
Source text: as §1

[6] = target: 363 human kinases (including Aurora A/B/C) (Homo sapiens, UniProt P06241); conditions: FYN; for remaining activity at 0.1 µM: 100 nM; for remaining activity at 0.1 µM / remaining activity at 0.5 µM: read-out: % Enzyme Activity (relative to DMSO controls)
363 human kinases (including Aurora A/B/C) (Homo sapiens, UniProt P06241), sequence (P06241 whole entry): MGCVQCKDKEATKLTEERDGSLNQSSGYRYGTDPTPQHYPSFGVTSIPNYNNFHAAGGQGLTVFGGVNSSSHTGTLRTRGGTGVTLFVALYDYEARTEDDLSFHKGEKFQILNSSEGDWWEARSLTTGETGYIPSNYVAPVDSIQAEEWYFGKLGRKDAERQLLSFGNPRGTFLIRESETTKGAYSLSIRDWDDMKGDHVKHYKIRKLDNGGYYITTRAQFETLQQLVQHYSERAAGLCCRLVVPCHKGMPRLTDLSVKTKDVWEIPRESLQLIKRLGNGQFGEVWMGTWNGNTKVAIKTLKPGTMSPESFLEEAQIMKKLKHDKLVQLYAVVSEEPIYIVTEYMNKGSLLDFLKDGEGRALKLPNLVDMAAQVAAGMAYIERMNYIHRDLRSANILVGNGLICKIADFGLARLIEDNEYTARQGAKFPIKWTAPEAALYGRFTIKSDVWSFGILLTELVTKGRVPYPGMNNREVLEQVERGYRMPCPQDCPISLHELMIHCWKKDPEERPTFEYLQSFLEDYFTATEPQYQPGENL
Source text: as §1

[7] = target: 363 human kinases (including Aurora A/B/C) (Homo sapiens, UniProt P54764); conditions: EPHA4, [ATP] 30 µM; for remaining activity at 0.1 µM: 100 nM; for remaining activity at 0.1 µM / remaining activity at 0.5 µM: read-out: % Enzyme Activity (relative to DMSO controls)
363 human kinases (including Aurora A/B/C) (Homo sapiens, UniProt P54764), sequence (P54764 20-986): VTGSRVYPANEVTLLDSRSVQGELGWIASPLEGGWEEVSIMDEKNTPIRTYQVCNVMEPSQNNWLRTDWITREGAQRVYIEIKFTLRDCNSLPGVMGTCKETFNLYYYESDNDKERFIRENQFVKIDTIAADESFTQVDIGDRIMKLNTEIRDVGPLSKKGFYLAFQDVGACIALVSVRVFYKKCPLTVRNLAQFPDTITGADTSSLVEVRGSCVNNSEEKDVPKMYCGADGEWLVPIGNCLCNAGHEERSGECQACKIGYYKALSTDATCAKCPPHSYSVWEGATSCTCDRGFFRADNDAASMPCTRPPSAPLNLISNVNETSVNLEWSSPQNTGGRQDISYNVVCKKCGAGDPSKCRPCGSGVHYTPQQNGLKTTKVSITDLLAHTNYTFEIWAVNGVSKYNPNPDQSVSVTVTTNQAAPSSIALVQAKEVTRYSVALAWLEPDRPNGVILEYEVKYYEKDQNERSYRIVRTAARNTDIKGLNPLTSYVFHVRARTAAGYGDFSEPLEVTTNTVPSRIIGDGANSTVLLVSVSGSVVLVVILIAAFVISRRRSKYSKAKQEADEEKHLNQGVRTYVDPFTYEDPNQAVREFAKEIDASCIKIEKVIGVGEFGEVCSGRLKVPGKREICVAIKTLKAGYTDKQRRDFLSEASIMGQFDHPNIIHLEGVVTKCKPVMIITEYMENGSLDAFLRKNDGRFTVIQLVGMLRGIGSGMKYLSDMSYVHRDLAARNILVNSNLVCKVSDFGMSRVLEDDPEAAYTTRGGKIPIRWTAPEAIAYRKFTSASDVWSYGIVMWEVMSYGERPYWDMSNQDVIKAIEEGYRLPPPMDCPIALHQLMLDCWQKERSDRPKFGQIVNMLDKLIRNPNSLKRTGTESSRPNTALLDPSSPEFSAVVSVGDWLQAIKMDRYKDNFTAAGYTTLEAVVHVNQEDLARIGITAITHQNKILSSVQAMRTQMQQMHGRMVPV
Source text: as §1

[8] = 500 nM, read-out: % Enzyme Activity (relative to DMSO controls)

**Q.** How did the remaining activity at 0.1 µM [1] turn out when `CCn1cc(-c2ccnc3[nH]c(-c4cccc(CN(C)C)c4)cc23)c(-c2ccc(NC(=O)N(C)C)cc2)n1` [GSK1070916] was run?
**A.** 130%

**Q.** What about the remaining activity at 0.1 µM [2] of the same compound?
**A.** 76.1%

**Q.** And the remaining activity at 0.1 µM ([3]; 100 nM, read-out: % Enzyme Activity (relative to DMSO controls))?
**A.** 99.2%

**Q.** What about the remaining activity at 0.1 µM [4] of the same compound?
**A.** 106%

**Q.** And the remaining activity at 0.1 µM [5]?
**A.** 94.2%

**Q.** What about the remaining activity at 0.1 µM [6] of the same compound?
**A.** 84.3%

**Q.** What about the remaining activity at 0.1 µM [7] of the same compound?
**A.** 100%

**Q.** Which “% Enzyme Activity (relative to DMSO controls)” value ([1]; 500 nM) does the source give for `O=C(c1cccc(Cl)c1F)N1CCN(Cc2cccc(Nc3nccs3)n2)CC1` [MK-8745] here?
**A.** 140.43%

**Q.** And the remaining activity at 0.5 µM ([1]; 500 nM)?
**A.** 146%

**Q.** What about the “% Enzyme Activity (relative to DMSO controls)” value ([2]; 500 nM) of the same compound?
**A.** 71.49%

**Q.** And the remaining activity at 0.5 µM ([2]; 500 nM)?
**A.** 73.2%

**Q.** And the “% Enzyme Activity (relative to DMSO controls)” value ([3]; 500 nM)?
**A.** 91.78%

**Q.** And the remaining activity at 0.5 µM [3, 8]?
**A.** 93.2%

**Q.** What about the “% Enzyme Activity (relative to DMSO controls)” value ([4]; 500 nM) of the same compound?
**A.** 94.24%

**Q.** And the remaining activity at 0.5 µM ([4]; 500 nM)?
**A.** 96.4%

**Q.** And the “% Enzyme Activity (relative to DMSO controls)” value ([5]; 500 nM)?
**A.** 92.75%

**Q.** And the remaining activity at 0.5 µM ([5]; 500 nM)?
**A.** 93.4%

**Q.** What about the “% Enzyme Activity (relative to DMSO controls)” value ([6]; 500 nM) of the same compound?
**A.** 57.68%

**Q.** What about the remaining activity at 0.5 µM ([6]; 500 nM) of the same compound?
**A.** 57.8%

**Q.** What about the “% Enzyme Activity (relative to DMSO controls)” value ([7]; 500 nM) of the same compound?
**A.** 87.10%

**Q.** And the remaining activity at 0.5 µM ([7]; 500 nM)?
**A.** 87.2%

**Q.** With `O=C(O)[C@]1(Cc2cccc(Nc3nccs3)n2)CC[C@@H](Oc2cccc(Cl)c2F)CC1` [MK-5108] as the compound, how does the remaining activity at 0.1 µM [1] read?
**A.** 116%

**Q.** What about the remaining activity at 0.5 µM ([1]; 500 nM) of the same compound?
**A.** 34.5%

**Q.** What about the remaining activity at 0.1 µM [2] of the same compound?
**A.** 21.8%

**Q.** And the remaining activity at 0.5 µM ([2]; 500 nM)?
**A.** 9.68%

**Q.** What about the remaining activity at 0.5 µM [3, 8] of the same compound?
**A.** 56.2%

**Q.** And the remaining activity at 0.1 µM [4]?
**A.** 87.6%

**Q.** What about the remaining activity at 0.5 µM ([4]; 500 nM) of the same compound?
**A.** 64.2%

**Q.** And the remaining activity at 0.1 µM [5]?
**A.** 98.6%

**Q.** What about the remaining activity at 0.5 µM ([5]; 500 nM) of the same compound?
**A.** 98%

**Q.** What about the remaining activity at 0.1 µM [6] of the same compound?
**A.** 43.9%

**Q.** What about the remaining activity at 0.5 µM ([6]; 500 nM) of the same compound?
**A.** 18%

**Q.** And the remaining activity at 0.1 µM [7]?
**A.** 50.2%

**Q.** And the remaining activity at 0.5 µM ([7]; 500 nM)?
**A.** 21.2%
